According to PubChem BioAssay AID248 (DTP/NCI, 2004):
“And” between values parts separate entries of the source, which are not always exact repeats. Equal entries are not always repeated. Toxic doses and inconclusive results are not listed. Cut-off read from the data, not from the text of the source: active = T/C of 150% or more; inactive = T/C below 125%.

Tested on: L1210 leukemia ip in BDF1 mice, survival T/C
Assay: NCI In Vivo Anticancer Drug Screen. Data for tumor model L1210 Leukemia (intraperitoneal) in B6D2F1 (BDF1) mice
Conditions: endpoint: mean survival time, higher = longer survival
In short: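 Antitumor effect is assessed in tumor-bearing animals. Survival in the compound arm is compared with a vehicle-dosed control arm and expressed as their quotient.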

[1] = dose: 100.0 mg/kg/injection, schedule: Q04DX003 (ip), vehicle: saline with Tween-80
[2] = dose: 100.0 mg/kg/injection, schedule: Q04DX003 (ip), vehicle: saline
[3] = dose: 200.0 mg/kg/injection, schedule: Q04DX003 (ip), vehicle: saline with Tween-80
[4] = dose: 200.0 mg/kg/injection, schedule: Q04DX003 (ip), vehicle: saline
[5] = dose: 400.0 mg/kg/injection, schedule: Q04DX003 (ip), vehicle: saline
[6] = dose: 100.0 mg/kg/injection, schedule: Q01DX001 (ip), vehicle: saline
[7] = dose: 200.0 mg/kg/injection, schedule: Q01DX001 (ip), vehicle: saline
[8] = dose: 400.0 mg/kg/injection, schedule: Q01DX001 (ip), vehicle: saline
[9] = dose: 100.0 mg/kg/injection, schedule: Q04DX003 (ip), vehicle: Klucel (hydroxypropylcellulose) (HPC)
[10] = dose: 200.0 mg/kg/injection, schedule: Q04DX003 (ip), vehicle: Klucel (hydroxypropylcellulose) (HPC)
[11] = dose: 400.0 mg/kg/injection, schedule: Q04DX003 (ip), vehicle: Klucel (hydroxypropylcellulose) (HPC)
[12] = dose: 100.0 mg/kg/injection, schedule: Q01DX009 (ip), vehicle: Klucel (hydroxypropylcellulose) (HPC)
[13] = dose: 25.0 mg/kg/injection, schedule: Q01DX009 (ip), vehicle: Klucel (hydroxypropylcellulose) (HPC)
[14] = dose: 50.0 mg/kg/injection, schedule: Q01DX009 (ip), vehicle: Klucel (hydroxypropylcellulose) (HPC)
[15] = dose: 100.0 mg/kg/injection, schedule: Q04DX002 (ip), vehicle: Klucel (hydroxypropylcellulose) (HPC)
[16] = dose: 200.0 mg/kg/injection, schedule: Q04DX002 (ip), vehicle: Klucel (hydroxypropylcellulose) (HPC)
[17] = dose: 400.0 mg/kg/injection, schedule: Q04DX002 (ip), vehicle: Klucel (hydroxypropylcellulose) (HPC)
[18] = dose: 75.0 mg/kg/injection, schedule: Q01DX001 (ip), vehicle: saline
[19] = dose: 150.0 mg/kg/injection, schedule: Q01DX001 (ip), vehicle: saline
[20] = dose: 300.0 mg/kg/injection, schedule: Q01DX001 (ip), vehicle: saline

Measured: T/C

CC(=O)Nc1ccc(N)cc1N
inactive: dose: 50.0 mg/kg/injection, schedule: Q04DX003 (ip), vehicle: saline 98 % of control | [1] 102 % of control | [2] 92 % of control and 89 % of control | [3] 115 % of control | [4] 98 % of control | dose: 400.0 mg/kg/injection, schedule: Q04DX003 (ip), vehicle: saline with Tween-80 100 % of control | [5] 89 % of control

CCCCC(=O)N/N=C/c1ccc(OCC)c(OCC)c1
inactive: [6] 102 % of control | [7] 98 % of control | [8] 102 % of control

OC1COC(c2ccccc2)OC1C(O)C1OC(c2ccccc2)OCC1O (configuration not stated)
inactive: dose: 100.0 mg/kg/injection, schedule: Q04DX002 (ip), vehicle: saline with Tween-80 89 % of control | dose: 200.0 mg/kg/injection, schedule: Q04DX002 (ip), vehicle: saline with Tween-80 105 % of control | dose: 400.0 mg/kg/injection, schedule: Q04DX002 (ip), vehicle: saline with Tween-80 102 % of control

O=C1NC(c2ccc(F)cc2)OC1C(=O)c1ccccc1 (configuration not stated)
inactive: [6] 104 % of control | [7] 110 % of control | [8] 104 % of control

Cc1ccc([Si](C)(C)[Si](C)C)cc1
inactive: [9] 98 % of control | [10] 102 % of control | [11] 105 % of control

CC1=C(C)CC2(C)N(C)CC2(C)C1 (configuration not stated)
inactive: dose: 37.0 mg/kg/injection, schedule: Q04DX003 (ip), vehicle: other 104 % of control | dose: 37.5 mg/kg/injection, schedule: Q01DX009 (ip), vehicle: other 110 % of control | dose: 75.0 mg/kg/injection, schedule: Q01DX001 (ip), vehicle: other 107 % of control | dose: 75.0 mg/kg/injection, schedule: Q01DX009 (ip), vehicle: other 100 % of control | dose: 75.0 mg/kg/injection, schedule: Q04DX003 (ip), vehicle: other 101 % of control | dose: 150.0 mg/kg/injection, schedule: Q01DX001 (ip), vehicle: other 115 % of control | dose: 150.0 mg/kg/injection, schedule: Q01DX009 (ip), vehicle: other 93 % of control | dose: 150.0 mg/kg/injection, schedule: Q04DX003 (ip), vehicle: other 106 % of control

O=C(OCCOCCOCCOC(=O)c1ccccc1)c1ccccc1
inactive: [12] 96 % of control | [9] 112 % of control | dose: 200.0 mg/kg/injection, schedule: Q01DX009 (ip), vehicle: Klucel (hydroxypropylcellulose) (HPC) 96 % of control | [10] 102 % of control | dose: 400.0 mg/kg/injection, schedule: Q01DX009 (ip), vehicle: Klucel (hydroxypropylcellulose) (HPC) 102 % of control | [11] 99 % of control

CC(=O)OCC(OC(C)=O)C(OC(C)=O)C(C#N)OC(C)=O (configuration not stated)
inactive: dose: 12.5 mg/kg/injection, schedule: Q01DX009 (ip), vehicle: Klucel (hydroxypropylcellulose) (HPC) 95 % of control | dose: 12.5 mg/kg/injection, schedule: Q04DX003 (ip), vehicle: Klucel (hydroxypropylcellulose) (HPC) 102 % of control | [13] 95 % of control | dose: 25.0 mg/kg/injection, schedule: Q04DX003 (ip), vehicle: Klucel (hydroxypropylcellulose) (HPC) 96 % of control | [14] 102 % of control | dose: 50.0 mg/kg/injection, schedule: Q04DX003 (ip), vehicle: Klucel (hydroxypropylcellulose) (HPC) 102 % of control | [1] 102 % of control | [3] 102 % of control

NNC(=O)c1ccccn1
inactive: dose: 50.0 mg/kg/injection, schedule: Q01DX001 (ip), vehicle: water 98 % of control | dose: 75.0 mg/kg/injection, schedule: Q01DX001 (ip), vehicle: water 98 % of control | dose: 100.0 mg/kg/injection, schedule: Q01DX009 (ip), vehicle: water 97 % of control | dose: 150.0 mg/kg/injection, schedule: Q01DX001 (ip), vehicle: water 102 % of control

Cc1c(O)ccc(O)c1C
inactive: [6] 100 % of control | [7] 95 % of control

Brc1cccc2ccccc12
inactive: [13] 89 % of control | [14] 86 % of control | [12] 99 % of control | [15] 112 % of control | [16] 105 % of control | [17] 119 % of control

O=C(n1ccnc1)C(F)(F)F
inactive: dose: 100.0 mg/kg/injection, schedule: Q01DX001 (ip), vehicle: saline sonified 105 % of control | [2] 109 % of control | dose: 200.0 mg/kg/injection, schedule: Q01DX001 (ip), vehicle: saline sonified 108 % of control | [4] 91 % of control | dose: 400.0 mg/kg/injection, schedule: Q01DX001 (ip), vehicle: saline sonified 101 % of control | [5] 97 % of control

Clc1ccc(CSc2ncc(Br)c(Cl)n2)cc1
inactive: dose: 100.0 mg/kg/injection, schedule: Q01DX Z (ip), vehicle: methylcellulose (MC) 90 % of control | dose: 200.0 mg/kg/injection, schedule: Q01DX Z (ip), vehicle: methylcellulose (MC) 99 % of control

CCOC(=O)C(C)(C)C(=O)C(C)C
inactive: [15] 100 % of control | [16] 95 % of control | [17] 103 % of control

Nc1nc(N)c(-c2ccc(Cl)c(Cl)c2)c(COc2ccc(CCNS(=O)(=O)c3ccc(S(=O)(=O)F)cc3)cc2)n1
inactive: dose: 25.0 mg/kg/injection, schedule: Q01DX001 (ip), vehicle: Klucel (hydroxypropylcellulose) (HPC) 96 % of control | dose: 50.0 mg/kg/injection, schedule: Q01DX001 (ip), vehicle: Klucel (hydroxypropylcellulose) (HPC) 102 % of control | dose: 100.0 mg/kg/injection, schedule: Q01DX001 (ip), vehicle: Klucel (hydroxypropylcellulose) (HPC) 96 % of control

COC(=O)c1c(C)cc(OC(=O)c2c(C)cc(OC)c(C)c2OC)c(C)c1O
inactive: dose: 50.0 mg/kg/injection, schedule: Q01DX001 (ip), vehicle: other 103 % of control | dose: 100.0 mg/kg/injection, schedule: Q01DX001 (ip), vehicle: other 97 % of control | dose: 200.0 mg/kg/injection, schedule: Q01DX001 (ip), vehicle: other 92 % of control | dose: 400.0 mg/kg/injection, schedule: Q01DX001 (ip), vehicle: other 92 % of control

CC(CO)(CO)N=Cc1cc(Cl)ccc1O
inactive: dose: 100.0 mg/kg/injection, schedule: Q01DX001 (ip), vehicle: carboxymethylcellulose (CMC) 91 % of control | dose: 200.0 mg/kg/injection, schedule: Q01DX001 (ip), vehicle: carboxymethylcellulose (CMC) 96 % of control | dose: 400.0 mg/kg/injection, schedule: Q01DX001 (ip), vehicle: carboxymethylcellulose (CMC) 109 % of control

NC(=O)NC(=O)c1ccccn1
inactive: [18] 106 % of control | [19] 97 % of control | [20] 100 % of control

CCOC(=O)C(Cc1c[nH]c2ccccc12)NC(=O)/C=C/N(CCCl)CCCl (configuration not stated)
inactive: dose: 10.0 mg/kg/injection, schedule: Q01DX Z (ip), vehicle: other 91 % of control | dose: 20.0 mg/kg/injection, schedule: Q01DX Z (ip), vehicle: other 92 % of control | dose: 40.0 mg/kg/injection, schedule: Q01DX Z (ip), vehicle: other 94 % of control | dose: 80.0 mg/kg/injection, schedule: Q01DX Z (ip), vehicle: other 89 % of control

C=CS(=O)(=O)CCCCCCC
inactive: [18] 96 % of control | [19] 94 % of control | [20] 97 % of control

O=C(CCl)NCCO
inactive: [2] 108 % of control | [4] 90 % of control | [5] 104 % of control

CCCNCCC[P+](c1ccccc1)(c1ccccc1)c1ccccc1
inactive: dose: 25.0 mg/kg/injection, schedule: Q04DX002 (ip), vehicle: saline 102 % of control | dose: 50.0 mg/kg/injection, schedule: Q04DX002 (ip), vehicle: saline 98 % of control | dose: 100.0 mg/kg/injection, schedule: Q04DX002 (ip), vehicle: saline 98 % of control and 91 % of control

O=S1(=O)CCCO1
inactive: dose: 100.0 mg/kg/injection, schedule: Q01DX009 (ip), vehicle: other 103 % of control | dose: 200.0 mg/kg/injection, schedule: Q01DX009 (ip), vehicle: other 109 % of control
